One series concerns HFLS-R^A. The following applies: in vitro; cited from earlier work.
Another series concerns the target T1, MetAP-2 (Rattus norvegicus, UniProt P38062).
T1 construct: wbc from animals of each study group were pooled and cell lysates were prepared as previously described; from tissue; host or cells: white blood cells (wbc) of female Lewis rats, pooled per study group and lysed
Put plainly: MetAP-2 pharmacodynamic assay in wbc lysates. It counts as in vivo. The following applies: po, PG-PS arthritis rats, read-out: MetAP-2 in wbc inhibited relative to vehicle-treated group. As for the experimental part: MetAP-2 pharmacodynamic assay. The MetAP-2 assay measures the amount of uninhibited MetAP-2 in cells or tissues which has not been derivitized by prior treatment with the MetAP-2 inhibitor (Bernier (2004) Proc. Natl. Acad. Sci. USA 101: 10768-10773 and Bernier (2005) J. Cell. Biochem. 95: 1191-1203). Briefly, wbc from animals of each study group were pooled and cell lysates were prepared as previously described (Bernier (2004) Proc. Natl. Acad. Sci. USA 101: 10768-10773 and Bernier (2005) J. Cell. Biochem. 95: 1191-1203). 10 μg to 20 μg of wbc protein was incubated with a biotinylated analog of the MetAP-2 inhibitor which covalently binds to the catalytic site of MetAP-2. The biotinylated MetAP-2-inhibitor complex was captured on a plate with immobilized streptavidin (Pierce), and detected with the MetAP-2 antibody CM33 (0.5 μg/ml), followed by horseradish peroxidase-conjugated goat anti-rabbit IgG secondary antibody. The amount of uninhibited MetAP-2 was determined by measuring the absorption at 450 nm using a Labsystems Multiskan plate spectrophotometer. Human recombinant MetAP-2 (Mediomics), pre-bound to the biotinylated MetAP-2 inhibitor, was used to generate the standard curve. The detection limit of this assay was 0.47 ng MetAP-2 protein/mg wbc protein.
Since the MetAP-2 inhibitor had the ability to inhibit multiple cell types critical for pathogenesis of the bone associated disease, RA, in vitro, it was hypothesized that the observations from the in vitro studies (Example 1) would translate into protection from disease in animals in the PG-PS model of arthritis. The progression of disease in this model follows a biphasic mode, with an early acute, predominantly neutrophil-driven phase which persists to days 6-7, followed by a chronic, T cell dependent phase (evident around day 12), which is characterized by chronic inflammation and erosive synovitis (Palombella (1998) Proc. Natl. Acad. Sci. USA 95:15671-15676). Therapeutic dosing of animals administered the MetAP-2 inhibitor orally (p.o.) at 1, 5 and 10 mg/kg, every other day (qod), or vehicle started at day 15 after the chronic destructive phase of the disease was established and terminated on day 31. […] The amount of uninhibited MetAP-2 in wbc of animals from all treatment groups was measured after conclusion of the study, using the MetAP-2 pharmacodynamic assay (Bernier (2004) Proc. Natl. Acad. Sci. USA 101: 10768-10773 and Bernier (2005) J. Cell. Biochem. 95: 1191-1203). […]

The subject of series [1] is primary human OC cultured on human bone particles. Put plainly: Bone resorption in vitro, CTX-I ELISA of culture supernatant. Type of series: cell-based. As to the method: ELISAs for cartilage and bone biochemical turnover markers. The amount of COMP in serum was measured with a competitive enzyme immunoassay (MD Biosciences, Inc) according to the manufacturer's instructions. The detection limit of this ELISA was 0.2 U/L. Helical peptide (amino acids 620 to 633) from the α1 chain of bone-specific human CTX-I was measured either in cell culture supernatants of primary human OC precursors cultured as described above, or in urine with a competitive enzyme immunoassay (Quidel Corporation). The detection limit of this ELISA was 8 μg/L. All CTX-I measurements in urine were corrected for urinary creatinine excretion for each sample to account for potential differences in renal clearance rates among the different study groups. Urinary creatinine was measured with a colorimetric assay (Quidel Corporation).
To determine whether the inhibition of OC differentiation by the MetAP-2 inhibitor in vitro correlated with the inhibition of bone resorption in vitro, primary human OC were cultured on a thin layer of human bone particles in the presence of M-CSF and RANKL, and vehicle or increasing concentrations of the MetAP-2 inhibitor. […] After 7 days, the culture supernatant was collected and the amount of bone-specific collagen type I C-terminal helical peptide (CTX-I) was measured by ELISA.

In a further series the test system is HUVEC. Particulars: 100 nM; cited from earlier work.
Another series deals with PG-PS-induced arthritis. The experiment in a line: Rat model of PG-PS induced arthritis, paw swelling. It counts as in vivo. Particulars: 1, 5 and 10 mg/kg p.o. qod, day 15 to 31, versus vehicle.

T1 sequence (P38062 whole entry): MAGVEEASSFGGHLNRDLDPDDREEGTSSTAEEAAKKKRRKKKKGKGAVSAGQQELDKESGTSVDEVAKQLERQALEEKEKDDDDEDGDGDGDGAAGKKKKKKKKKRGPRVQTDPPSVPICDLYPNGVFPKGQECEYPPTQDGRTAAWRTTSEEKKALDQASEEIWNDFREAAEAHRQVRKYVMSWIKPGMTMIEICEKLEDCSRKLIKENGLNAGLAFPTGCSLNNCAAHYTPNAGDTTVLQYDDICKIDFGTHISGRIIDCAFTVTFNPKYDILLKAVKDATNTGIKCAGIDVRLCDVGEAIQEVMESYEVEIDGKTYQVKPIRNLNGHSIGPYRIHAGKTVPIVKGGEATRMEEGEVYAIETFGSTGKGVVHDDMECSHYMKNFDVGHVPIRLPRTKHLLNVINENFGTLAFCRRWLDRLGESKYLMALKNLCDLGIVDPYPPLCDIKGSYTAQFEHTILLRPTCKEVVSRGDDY
Method for PG-PS-induced arthritis: Rat model of PG-PS induced arthritis. Female Lewis rats (109-130 g) were received from Charles River Laboratories. Food and water were available ad libitum. PG-PS (25 mg/kg) was injected i.p. on day 1 and responding animals were randomized into treatment groups on day 14. Vehicle (11% HPCD in PBS), dex and the MetAP-2 inhibitor (1, 5, and 10 mg/kg) were administered p.o., qod. Paw swelling was monitored using a plethysmometer (Stoelting Co., Woodale, Ill.) according to instrument specifications. The volumes of the two hind paws were measured and averaged on day 1, 4, 6, 8, 10, 13, 15, 17, 20, 22, 23, 27, 29 and 31. Ten animals were assigned to each group except the vehicle group and animals which received no PG-PS, but 10 mg/kg MetAP-2 inhibitor (n=4).

With `CO[C@@H]1[C@H](OC(=O)N[C@@H](C(N)=O)C(C)C)CC[C@]2(CO2)[C@H]1[C@@]1(C)O[C@@H]1CC=C(C)C` [MetAP-2 inhibitor, (1-Carbamoyl-2-methyl-propyl)-carbamic acid-(3R,4S,5S,6R)-5-methoxy-4-[(2R,3R)-2-methyl-3-(3-methyl-but-2-enyl)-oxiranyl]-1-oxa-spiro[2,5]oct-6-yl ester], the “inhibition of proliferation of HFLS-RA” value in the series on HFLS-R^A was “potently inhibit”. Besides, on MetAP-2 (1 mg/kg p.o. qod), the inhibition at 1 mg/kg is no less than 60%. Also, the inhibition at 5 mg/kg at MetAP-2 (5 mg/kg p.o. qod) was no less than 95%. Further, the inhibition at 10 mg/kg at MetAP-2 (10 mg/kg p.o. qod) is no less than 95%. For the same compound, in series [1] (168 h, 7 days, M-CSF and RANKL, human bone particles, read-out: IC50, bone resorbing activity of OC (CTX-I)), the IC50 is no more than 100 pM. Further, in series [1] (at 1 nM and 10 nM, versus E-64 at 100 nM), the “degree of inhibition of bone resorption” value is “comparable to the inhibitory activity of E-64 at 100 nM”. Besides, the “induction of apoptosis in HUVEC” value in the series on HUVEC is on record as “did not induce apoptosis”. Moreover, the “joint swelling and inflammation, paw swelling of the hind limbs” value in the series on PG-PS-induced arthritis was “significant amelioration”.

The record behind these values is patent publication US20070254843A1, “Methods for treating bone associated diseases by the use of methionine aminopeptidase-2 inhibitors” (Praecis Pharmaceuticals Incorporated, priority 2006, published 2007).
